Experimental data taken from patent publication US9592234B2, “Methods and compositions for stimulating neurogenesis and inhibiting neuronal degeneration using isothiazolopyrimidinones” (Neuronascent, Inc., priority 2007, dated 2017).

Columns and labels:
Human neurons = assay: inhibition of neurodegeneration by hydrogen peroxide (Alamar Blue respiration); type: cell-based; details: hydrogen peroxide 50 uM for up to 6 hrs, FIG. 1
Method: Dysfunctional neurons were initiated using any of the above agents or using hydrogen peroxide at 1-100 μM concentration. Using a dye that measures metabolic activity of the cells, such as MTT or ALAMARBLUE®, we determined the reduction of respiratory capacity of the cells, which indicated neuron dysfunction. The ability of neurogenic agents to inhibit hydrogen peroxide-induced reduction in cellular respiration was used as a measure of inhibition of neuronal dysfunction, a potential step that lead to degeneration.
Certain compounds were further analyzed to determine their ability to inhibit neurodegeneration by hydrogen peroxide. Human neurons are treated with hydrogen peroxide (50 uM) for up to 6 hrs and then neuronal loss is measured using Alamar Blue respiration.

[1] = tested on: human neuronal progenitors cells; assay: in vitro neurogenesis test; type: cell-based; details: MAP-2 staining on day 11; differentiation media; vehicle 0.2% DMSO in DMEM/F12
Method: The in vitro neurogenesis test was performed using human neuronal progenitors cells. By way of background, the human neuronal progenitor cells can be cultured in media and have the potential to produce mature functional neurons. The neurogenesis factor in the culture media can promote the number of the progenitor cells which differentiate into neurons. Indeed, it is a widely accepted in vitro model to test a chemical's neurogenetic property.
Cells were obtained as human neuronal progenitors from a commercial source and were grown for up to three passages or at any time differentiated to potentially produce mature functional neurons in culture. Following two passages to expand the cells, progenitors were seeded into multi-well microplates and the media were changed to differentiation media (minus serum and mitogen). Within 2 hrs of this media change, a vehicle, positive control or test compound were added to each well. Also, they were added with every further media change (50% volume change every other day). Control wells contained cells and vehicle (0.2% DMSO in DMEM/F12). […]
The cells were stained using MAP-2, a neuronal marker, on day 11. Then, each test compound was assessed for the ability to promote an increase in neuron number and compared with the positive control, leukemia inhibitory factor (LIF).

Compound	loss of respiration (neuronal loss) when added along with hydrogen peroxide (Human neurons)	Effects of compounds on the increase in the neuron numbers compared with the vehicle control, % of Control [1] [%]
CCN1CCCC1Cn1cnc2c(-c3ccc(OC)cc3)nsc2c1=O (stereo not shown) [NNI-A, 6-((1-ethylpyrrolidin-2-yl)methyl)-3-(4-methoxyphenyl)isothiazolo[4,5-d]pyrimidin-7(6H)-one]	less loss of respiration	
COc1ccc(-c2nsc3c(=O)n(CCCN4CCOCC4)cnc23)cc1 [3-(4-Methoxyphenyl)-6-[3-(4-morpholinyl)propyl]-isothiazolo[4,5-d]pyrimidin-7-(6H)-one]		115
CCN1CCCC1Cn1cnc2c(-c3ccc(OC)cc3)nsc2c1=O (stereo not shown) [3-(4-Methoxyphenyl)-6-[(1-ethylpyrrolidin-2-yl)methyl]-isothiazolo[4,5-d]pyrimidin-7(6H)-one]		107
CCN1CCCC1Cn1cnc2c(-c3ccc(F)cc3)nsc2c1=O (stereo not shown) [NNI-B, 6-((1-ethylpyrrolidin-2-yl)methyl)-3-(4-fluorophenyl)isothiazolo[4,5-d]pyrimidin-7(6H)-one]	less loss of respiration	
